Series [1] has as its system BC2.2, BC22.1, BC29.1, MetBR 007-DR. In words: EMT and lineage markers in patient-derived triple-negative breast cancer cell lines. Format: cell-based, human. As to conditions: patient-derived TNBC cell lines. As to the method: (§1) Breast tissue biopsies from cancer patients were obtained from National Cancer Centre Singapore (NCCS) with patients' consent and under an IRB approved protocol (2015/2976). Tissue was digested with 1 mg/ml collagenase IV (Gibco) and 1 mg/ml dispase II (Thermo Fisher Scientific) in F12 media for 2 h while shaking in a 37° C. incubator. Cell suspension was then put through a cell strainer and centrifuged for 10 min at 1500 rpm. Cells were then washed twice and resuspended in media before seeding on irradiated 3T3 feeders as previously described. When confluent, sub-culturing was carried out by first lifting the feeders using 0.15% trypsin for 2 min. […]
(§2) Cells were rinsed twice in ice-cold PBS. Total RNA was extracted using Trizol (Invitrogen) and column-purified with RNeasy kits (Qiagen). cDNA synthesis was performed with 500 ng of total RNA at 37° C. for 2 h using the SuperScript III First-Strand Synthesis System (Thermo Fisher Scientific), and subsequently diluted 5-fold. mRNA levels were measured with gene-specific primers listed below using the ABI Prism 7900HT Sequence Detection System 2.2 (Applied Biosystems). Results were normalized to GAPDH and analyzed using SDS 2.2 software.
(§3) Cells were harvested and scraped from culture dishes in ice-cold PBS. […] Protein concentrations were determined using Coomaisse Blue. […]

For another series, the system named is SUM159 PACR cells. Nature of the series: Cell viability IC50 in SUM159 PACR cells. As to conditions: SUM159 PACR.
Another series concerns BC24.1 and BC33.1. In words: EMT and lineage markers in patient-derived ER+, luminal-like tumor cell lines. Format: cell-based, human. The protocol: as §1, §2, §3
Series [2] deals with NAMEC8-Ras, BC2.2 and BC22.1 tumors. Nature of the series: Xenograft treatment with oral bexarotene. Format: in vivo, NSG mice. The source says: Primary human breast cancer samples were obtained from the National Cancer Centre Singapore (NCCS) with patients' consent and under an IRB approved protocol (2015/2976). All animal experiments were approved by the Agency for Science Technology and Research Singapore-Biological Resource Centre IACUC (Protocol number 171286). Patient-derived breast tumor fragments (approximately 3×1×1 mm) were inserted bilaterally into the inguinal mammary fat pads of 6-8 week-old NSG female mice for initial establishment of tumors, and subsequently expanded in NSG mice once established. In this study, established tumor fragments of BC2.2 were implanted into cohorts of 6-8 week-old female NSG mice. For BC22.1, 1×10^6 cells were injected subcutaneously into both flanks of NSG mice.
All animal experiments were approved by the Agency for Science Technology and Research Singapore-Biological Resource Centre IACUC (Protocol number 140940). For pre-treated SUM159 and MCF7-Ras cells, 1×10^6 cells were suspended in 100 μl media containing 50% matrigel and injected subcutaneously into both flanks of female NSG mice. The NSG mice were checked for tumor by palpation once a week and tumors were harvested when they reached ˜15 mm in diameter. For treatment in NSG mice, 1×10^5 NAMEC8-Ras cells were suspended in 100 μl media containing 50% matrigel and injected subcutaneously into both flanks of NSG mice. The NSG mice were checked for tumor formation by palpation and when tumors were about 3 mm, mice were randomized into two groups: vehicle (5% DMSO in corn oil) and treatment (Bexarotene, 100 mg/kg/day oral dosing). Tumor size was measured every week using Vernier calipers and mice were sacrificed when tumors reached ˜15 mm or after ˜4 weeks of treatment. For patient-derived cells, 2×10^6 cells were injected subcutaneously per site in NSG mice. […]
The tumor sections were fixed overnight in 4% paraformaldehyde, immersed in 70% ethanol, and sent to the Advanced Molecular Pathlogy Lab, IMCB for paraffinization. […] The fluorescence image analysis and the fluorescence overlay image were obtained with the Axio Vision Rel. […]

For the compound `C=C(c1ccc(C(=O)O)cc1)c1cc2c(cc1C)C(C)(C)CCC2(C)C` [Bexarotene], the “expression of EMT and lineage markers” value in series [1] is given as “increased the expression of E-cadherin, while reducing SLUG expression, to varying extents”. Besides, the “sensitivity to 5-FU of bexarotene-treated PACR cells” value in the series with SUM159 PACR cells was “gained sensitivity to an alternative chemotherapeutic drug, 5-flurouracil (5-FU)”. The “expression of epithelial/mesenchymal or luminal/basal markers” value in the series with BC24.1 and BC33.1 was “no dramatic change in the expression of the epithelial/mesenchymal or luminal/basal markers”. Besides, in series [2] (100 mg/kg/day oral dosing vs vehicle), the “tumor growth rate and burden” value was “significant reductions in tumor growth rate and burden”. The “retinoid target gene expressions in tumors” value in series [2] (STRA6, CRAPBP2, DHRS3, ANGPTL4, IP6K3, ACSL5) is “upregulated by at least two-fold”. Moreover, in series [2] (tumors from bexarotene-treated mice), the “EMT markers in tumor sections (immunofluorescence)” value was “expression of E-cadherin, and the loss of fibronectin”.

(Values after patent US12667546B2, “Methods for manipulating cell state transitions in cancer” (AGENCY FOR SCIENCE, TECHNOLOGY AND RESEARCH, priority 2018, dated 2026).)
